In ChEMBL document CHEMBL4483862, “Open-source discovery of chemical leads for next-generation chemoprotective antimalarials” (2018) one finds IC50 and IC90 data, which are given here for 40 molecules.

The term pIC50 denotes the negative decadic logarithm of the IC50, by convention in mol/L. A word on the IC90: it is the concentration at which the effect reaches the 90% level.

Molecules are shown by their SMILES. pIC50: −log10 of the molar value.

This assay has as its system Plasmodium berghei. In words: Luciferase/luciferin-expressing antifolate-resistant parasites were used to infect a culture of HepG2 cells that were pre-incubated with compounds. Infected hepatocytes emit light due to the luciferase reaction. Assay results are presented as the percent inhibition of light emission compared to control. […]. Conditions: sporozoite; for IC90: read-out: LUCIFERASE INFECTION ASSAY - IC90. In kind it is functional.

Setting [1] is: read-out: LUCIFERASE INFECTION ASSAY - IC50.

On to `C/N=c1\scc(-c2ccc3c(c2)NC(=O)CO3)n1/N=C/c1cc(Br)c(O)c(OC)c1`, for which the IC90 came out at 7.81 µM. The pIC50 (HEPG2TOX_HILL_SLOPE 8.72, HEPG2TOX_R_SQUARED 0.934, PBLUC_HILL_SLOPE 4.3, PBLUC_R_SQUARED 0.314, read-out: LUCIFERASE INFECTION ASSAY - IC50) was 5.33.

For `Cc1cc2oc(C(=O)Nc3nonc3-c3ccc(F)cc3)c(C)c2cc1Cl`, the IC90 was more than 8.55 µM. Moreover, the pIC50 under setting [1] was less than 5.07.

Consider `Nc1nc(CN2CCN(Cc3cccc4cccnc34)CC2)nc2ccccc12`, for which the IC90 is more than 10 µM. In addition, under setting [1], the pIC50 was less than 5.00.

For the molecule `CCc1ccc(CN(C)CC(O)COc2cccc3ccccc23)cc1` (stereo not given), the IC90 was more than 10 µM. Besides, the pIC50 under setting [1] is less than 5.00.

With `OC[C@H]1O[C@@H](c2nc3cc(-c4nc(-c5ccccc5F)no4)ccc3[nH]2)C[C@@H]1O`, the IC90 amounted to 2.9 µM. Moreover, for the setting “PBLUC_HILL_SLOPE 37.1, PBLUC_R_SQUARED 0.287, read-out: LUCIFERASE INFECTION ASSAY - IC50”, the pIC50 was 5.56.

Consider `CCC(OC(=O)c1cc2ccccc2[nH]1)C(=O)Nc1cc(C)on1` (stereo not given), for which the IC90 was more than 10 µM. Besides, the pIC50 under setting [1] was less than 5.00.

With `CN(C)c1cccc(-c2cnc3cnc(-c4cccc(C(N)=O)c4)cn23)c1`, the IC90 is more than 9.23 µM. Besides, for the setting “PBLUC_HILL_SLOPE 15.5, PBLUC_R_SQUARED 0.533, read-out: LUCIFERASE INFECTION ASSAY - IC50”, the negative logarithm of the IC50 (pIC50) was 5.06.

As for `O=C(Cc1ccsc1)Nc1nc(-c2ccccn2)cs1`, the IC90 is 8.87 µM. For the same molecule, the pIC50 (PBLUC_HILL_SLOPE 6.07, PBLUC_R_SQUARED 0.668, read-out: LUCIFERASE INFECTION ASSAY - IC50) was 5.21.

In the case of `Cc1cnc(NC(=O)c2ccc(C3SCCS3)cc2)s1`, the IC90 was more than 10 µM. Moreover, under setting [1], the pIC50 is 6.56.

Turning to `O=C(CNc1ccc(Oc2ccc(Br)cc2)cc1)NC1CC1`, the IC90 is more than 10 µM. Moreover, the pIC50 under setting [1] is less than 5.00.

On to `CCOc1cc(C2NCC(c3ccccc3)c3c2[nH]c2ccccc32)ccc1OCC(C)C` (stereo not given), for which the IC90 was more than 10 µM. Also, for the setting “PBLUC_HILL_SLOPE 4.52, PBLUC_R_SQUARED 0.531, read-out: LUCIFERASE INFECTION ASSAY - IC50”, the pIC50 was 5.21.

Turning to `Cc1ccc(S(=O)(=O)N(Cc2ccc(C(=O)NC3CC3)cc2)C2CC2)c(C)c1`, the IC90 is 0.498 µM. Further, the pIC50 (PBLUC_HILL_SLOPE 1.22, PBLUC_R_SQUARED 0.762, read-out: LUCIFERASE INFECTION ASSAY - IC50) is 7.09.

With `COc1nc2c(c(-c3ccc(SC)cc3)c1C#N)Cc1ccccc1-2`, the IC90 was more than 9.58 µM. Where the note is “HEPG2TOX_HILL_SLOPE 1.73, HEPG2TOX_R_SQUARED 0.894, PBLUC_HILL_SLOPE 2.49, PBLUC_R_SQUARED 0.21, read-out: LUCIFERASE INFECTION ASSAY - IC50”, the pIC50 was 5.27.

Take `COC(=O)c1cnc(NC(=O)/C=C/c2ccc([N+](=O)[O-])o2)s1`: the IC90 was more than 10 µM. Moreover, the pIC50 (HEPG2TOX_HILL_SLOPE 3.5, HEPG2TOX_R_SQUARED 0.48, read-out: LUCIFERASE INFECTION ASSAY - IC50) is less than 5.00.

With `CC(C)c1ccc(-c2csc(NC(=O)CCn3cnc([N+](=O)[O-])c3)n2)c(C(C)C)c1`, the IC90 amounted to 8.21 µM. For the same molecule, the pIC50 (FFLUC_HILL_SLOPE 11.6, FFLUC_R_SQUARED 0.59, HEPG2TOX_HILL_SLOPE 11.1, HEPG2TOX_R_SQUARED 0.951, PBLUC_HILL_SLOPE 3.89, PBLUC_R_SQUARED 0.436, read-out: LUCIFERASE INFECTION ASSAY - IC50) was 5.33.

With `FC(F)(F)Oc1ccc(Nc2cc(-c3cccc(Cl)c3)ncn2)cc1`, the IC90 was more than 9.02 µM. The pIC50 under setting [1] is less than 5.04.

On to `CN(C)c1cccc(-c2cnc3cnc(-c4ccccc4)cn23)c1`, for which the IC90 was more than 10.5 µM. The pIC50 under setting [1] is less than 4.98.

`Cc1nsc(N)c1C(=O)OCc1cc(=O)n2c3c(sc2n1)CCCC3`: the IC90 was more than 10 µM. The pIC50 (FFLUC_HILL_SLOPE 11.9, FFLUC_R_SQUARED 0.297, read-out: LUCIFERASE INFECTION ASSAY - IC50) is less than 5.00.

On to `C=Cc1c(S(C)(=O)=O)sc(C(N)=O)c1C`, for which the IC90 is more than 13.5 µM. Besides, the pIC50 under setting [1] was less than 4.87.

Consider `Cc1nc(NC(=O)c2ccc(C(C)(C)C)cc2)ccc1Br`, for which the concentration for an effect of 90% (IC90) was more than 9.5 µM. Also, under “PBLUC_HILL_SLOPE 8.59, PBLUC_R_SQUARED 0.6, read-out: LUCIFERASE INFECTION ASSAY - IC50”, the pIC50 is 5.13.

As to `FC(F)(F)Oc1cccc(-c2ccc3ncc(-c4cccnc4)n3n2)c1`, the IC90 is 3.34 µM. For the same molecule, the pIC50 (PBLUC_HILL_SLOPE 3.42, PBLUC_R_SQUARED 0.748, read-out: LUCIFERASE INFECTION ASSAY - IC50) was 5.75.

For the molecule `Cn1c(-c2ccco2)nc2cnc(Nc3cccc(C(F)(F)F)c3)cc21`, the IC90 is more than 10 µM. Besides, the pIC50 (FFLUC_HILL_SLOPE 19, FFLUC_R_SQUARED 0.549, HEPG2TOX_HILL_SLOPE 17, HEPG2TOX_R_SQUARED 0.382, PBLUC_HILL_SLOPE 1.81, PBLUC_R_SQUARED 0.343, read-out: LUCIFERASE INFECTION ASSAY - IC50) is 5.06.

For `Cc1sc2nc(-c3cccnc3)nc(NCCNc3ccccn3)c2c1C`, the IC90 came out at 1.71 µM. The pIC50 (HEPG2TOX_HILL_SLOPE 1.88, HEPG2TOX_R_SQUARED 0.918, PBLUC_HILL_SLOPE 8.99, PBLUC_R_SQUARED 0.794, read-out: LUCIFERASE INFECTION ASSAY - IC50) is 5.87.

Take `Fc1ccc(Nc2n[nH]c(=S)s2)cc1`: the IC90 is more than 14.5 µM. Moreover, the pIC50 under setting [1] is less than 4.84.

For `COc1ccc(-c2ccc3ncc(-c4ccc(NC(C)=O)cc4)n3n2)cc1OC`, the IC90 is 0.053 µM. Moreover, where the note is “HEPG2TOX_HILL_SLOPE 0.646, HEPG2TOX_R_SQUARED 0.97, PBLUC_HILL_SLOPE 3.16, PBLUC_R_SQUARED 0.759, read-out: LUCIFERASE INFECTION ASSAY - IC50”, the negative-log IC50 (pIC50) was 7.58.

In the case of `Cc1nnc(NC(=O)CN2CCC(c3nc4ccccc4o3)CC2)s1`, the IC90 was more than 10 µM. In addition, the pIC50 under setting [1] is less than 5.00.

In the case of `CC(C)(C)C1CCC2(CC1)NC(=O)N(CC(=O)OCC(=O)N1CCN(Cc3ccccc3)C1=O)C2=O` (stereo not given), the IC90 was more than 10 µM. The pIC50 under setting [1] was less than 5.00.

For the molecule `O=C(Nc1ccccc1)Nc1ccc(Cl)cc1[N+](=O)[O-]`, the IC90 is 5.21 µM. Further, where the note is “HEPG2TOX_HILL_SLOPE 12.3, HEPG2TOX_R_SQUARED 0.323, PBLUC_HILL_SLOPE 4.88, PBLUC_R_SQUARED 0.281, read-out: LUCIFERASE INFECTION ASSAY - IC50”, the pIC50 was 5.48.

Take `COc1cccc(Nc2nc(C(N)Cc3ccc(C(F)(F)F)cc3)cs2)n1` (stereo not given): the IC90 is 3.58 µM. Further, the pIC50 (PBLUC_HILL_SLOPE 179, PBLUC_R_SQUARED 0.233, read-out: LUCIFERASE INFECTION ASSAY - IC50) is 5.45.

In the case of `COc1ccc(/C(C#N)=C/c2ccccc2OC)cc1`, the IC90 was found to be 2.26 µM. Besides, the pIC50 (HEPG2TOX_HILL_SLOPE 1.28, HEPG2TOX_R_SQUARED 0.968, PBLUC_HILL_SLOPE 1.65, PBLUC_R_SQUARED 0.898, read-out: LUCIFERASE INFECTION ASSAY - IC50) is 6.22.

As for `COc1cc(-c2cc(-c3cc4ccccc4s3)cnc2N)cc(OC)c1OC`, the IC90 was more than 8.41 µM. The pIC50 (HEPG2TOX_HILL_SLOPE 0.717, HEPG2TOX_R_SQUARED 0.312, PBLUC_HILL_SLOPE 43.5, PBLUC_R_SQUARED 0.0859, read-out: LUCIFERASE INFECTION ASSAY - IC50) was 5.08.

On to `O=C(OCC1CCCCC1)c1[nH]nc2ccccc12`, for which the IC90 is more than 10 µM. Further, the pIC50 under setting [1] was less than 5.00.

With `CC(C)(NCC(=O)Nc1ccccc1C(N)=O)c1ccc2c(c1)OCO2`, the IC90 was more than 10 µM. For the same molecule, the pIC50 (PBLUC_HILL_SLOPE 7.96, PBLUC_R_SQUARED 0.17, read-out: LUCIFERASE INFECTION ASSAY - IC50) is less than 5.00.

`C=CCN(c1ccc(Cl)cc1)S(=O)(=O)c1cccc(C(=O)C(C#N)c2nc3ccccc3n2C)c1` (stereo not given): the IC90 came to 3.88 µM. In addition, the pIC50 (HEPG2TOX_HILL_SLOPE 10.3, HEPG2TOX_R_SQUARED 0.536, PBLUC_HILL_SLOPE 9.9, PBLUC_R_SQUARED 0.166, read-out: LUCIFERASE INFECTION ASSAY - IC50) is 5.51.

Consider `COc1ccc(-c2cc3ncnc(NCC4CN(Cc5ccccc5)CCO4)c3s2)cc1` (stereo not given), for which the IC90 is more than 10 µM. Moreover, under “PBLUC_HILL_SLOPE 9.06, PBLUC_R_SQUARED 0.282, read-out: LUCIFERASE INFECTION ASSAY - IC50”, the pIC50 was 5.08.

On to `Cc1ccc(S(=O)(=O)Nc2ccc(Nc3nccn4c(-c5ccccc5N(C)C)cnc34)cc2)cc1`, for which the IC90 is more than 6.62 µM. Further, the pIC50 (PBLUC_HILL_SLOPE 3.26, PBLUC_R_SQUARED 0.262, read-out: LUCIFERASE INFECTION ASSAY - IC50) is 5.46.

Take `CCOC(=O)c1cc(C#N)c(Sc2n[nH]c(=O)n2Cc2ccc(C(F)(F)F)cc2)nc1C`: the IC90 is more than 7.12 µM. Moreover, for the setting “FFLUC_HILL_SLOPE 26.6, FFLUC_R_SQUARED 0.376, read-out: LUCIFERASE INFECTION ASSAY - IC50”, the pIC50 is less than 5.15.

With `Fc1cccc(Cl)c1CSc1nnc(-c2cc(C(F)(F)F)cc(C(F)(F)F)c2)[nH]1`, the IC90 is more than 7.24 µM. Also, the pIC50 (PBLUC_HILL_SLOPE 6.81, PBLUC_R_SQUARED 0.556, read-out: LUCIFERASE INFECTION ASSAY - IC50) is less than 5.14.

On to `O=C(/C=C/c1cccc(NC(=O)c2ccccc2Cl)c1)c1ccc2c(c1)-c1ccccc1C2`, for which the IC90 is more than 10 µM. Also, the pIC50 under setting [1] is less than 5.00.

Turning to `CC(=O)N[C@H]1[C@@H](OC(C)=O)O[C@H](COC(c2ccccc2)(c2ccccc2)c2ccccc2)[C@@H](OC(C)=O)[C@@H]1OC(C)=O`, the IC90 is more than 5.6 µM. Moreover, the pIC50 under setting [1] is less than 5.25.
